In patent publication US9340590B2 (priority 2011, dated 2016):
Where “and” joins values, the source holds several entries; their conditions need not be identical. Identical values can stand only once. Entries after “also recorded” stand apart in the source; their conditions may differ. Like-named read-outs stand apart in the source and are kept apart here.

Assays:
Nav1.4 = Nav1.4 (Rattus norvegicus, UniProt P15390); conditions: read-out: TTX IC50; cited from earlier work
Nav1.3 = Nav1.3 (Rattus norvegicus, UniProt P08104); conditions: read-out: TTX IC50; cited from earlier work
Nav1.7 = Nav1.7 (Rattus norvegicus, UniProt O08562); conditions: read-out: TTX IC50; cited from earlier work
Nav1.8 = Nav1.8 (Rattus norvegicus, UniProt Q62968); conditions: read-out: TTX IC50; cited from earlier work
Nav1.6 = Nav1.6 (Rattus norvegicus, UniProt O88420); conditions: read-out: TTX IC50; cited from earlier work
in vivo [1] = conditions: CD-1, mouse
in vivo [2] = conditions: male, CD-1, mouse, sc, terminal exposure (peptide plasma concentration at 2 h post peptide injection)
hNav1.7 [3] = biological target: T1, hNav1.7 (Homo sapiens, UniProt Q15858); assay type: cell-based
T1 sequence (Q15858 whole entry, looked up): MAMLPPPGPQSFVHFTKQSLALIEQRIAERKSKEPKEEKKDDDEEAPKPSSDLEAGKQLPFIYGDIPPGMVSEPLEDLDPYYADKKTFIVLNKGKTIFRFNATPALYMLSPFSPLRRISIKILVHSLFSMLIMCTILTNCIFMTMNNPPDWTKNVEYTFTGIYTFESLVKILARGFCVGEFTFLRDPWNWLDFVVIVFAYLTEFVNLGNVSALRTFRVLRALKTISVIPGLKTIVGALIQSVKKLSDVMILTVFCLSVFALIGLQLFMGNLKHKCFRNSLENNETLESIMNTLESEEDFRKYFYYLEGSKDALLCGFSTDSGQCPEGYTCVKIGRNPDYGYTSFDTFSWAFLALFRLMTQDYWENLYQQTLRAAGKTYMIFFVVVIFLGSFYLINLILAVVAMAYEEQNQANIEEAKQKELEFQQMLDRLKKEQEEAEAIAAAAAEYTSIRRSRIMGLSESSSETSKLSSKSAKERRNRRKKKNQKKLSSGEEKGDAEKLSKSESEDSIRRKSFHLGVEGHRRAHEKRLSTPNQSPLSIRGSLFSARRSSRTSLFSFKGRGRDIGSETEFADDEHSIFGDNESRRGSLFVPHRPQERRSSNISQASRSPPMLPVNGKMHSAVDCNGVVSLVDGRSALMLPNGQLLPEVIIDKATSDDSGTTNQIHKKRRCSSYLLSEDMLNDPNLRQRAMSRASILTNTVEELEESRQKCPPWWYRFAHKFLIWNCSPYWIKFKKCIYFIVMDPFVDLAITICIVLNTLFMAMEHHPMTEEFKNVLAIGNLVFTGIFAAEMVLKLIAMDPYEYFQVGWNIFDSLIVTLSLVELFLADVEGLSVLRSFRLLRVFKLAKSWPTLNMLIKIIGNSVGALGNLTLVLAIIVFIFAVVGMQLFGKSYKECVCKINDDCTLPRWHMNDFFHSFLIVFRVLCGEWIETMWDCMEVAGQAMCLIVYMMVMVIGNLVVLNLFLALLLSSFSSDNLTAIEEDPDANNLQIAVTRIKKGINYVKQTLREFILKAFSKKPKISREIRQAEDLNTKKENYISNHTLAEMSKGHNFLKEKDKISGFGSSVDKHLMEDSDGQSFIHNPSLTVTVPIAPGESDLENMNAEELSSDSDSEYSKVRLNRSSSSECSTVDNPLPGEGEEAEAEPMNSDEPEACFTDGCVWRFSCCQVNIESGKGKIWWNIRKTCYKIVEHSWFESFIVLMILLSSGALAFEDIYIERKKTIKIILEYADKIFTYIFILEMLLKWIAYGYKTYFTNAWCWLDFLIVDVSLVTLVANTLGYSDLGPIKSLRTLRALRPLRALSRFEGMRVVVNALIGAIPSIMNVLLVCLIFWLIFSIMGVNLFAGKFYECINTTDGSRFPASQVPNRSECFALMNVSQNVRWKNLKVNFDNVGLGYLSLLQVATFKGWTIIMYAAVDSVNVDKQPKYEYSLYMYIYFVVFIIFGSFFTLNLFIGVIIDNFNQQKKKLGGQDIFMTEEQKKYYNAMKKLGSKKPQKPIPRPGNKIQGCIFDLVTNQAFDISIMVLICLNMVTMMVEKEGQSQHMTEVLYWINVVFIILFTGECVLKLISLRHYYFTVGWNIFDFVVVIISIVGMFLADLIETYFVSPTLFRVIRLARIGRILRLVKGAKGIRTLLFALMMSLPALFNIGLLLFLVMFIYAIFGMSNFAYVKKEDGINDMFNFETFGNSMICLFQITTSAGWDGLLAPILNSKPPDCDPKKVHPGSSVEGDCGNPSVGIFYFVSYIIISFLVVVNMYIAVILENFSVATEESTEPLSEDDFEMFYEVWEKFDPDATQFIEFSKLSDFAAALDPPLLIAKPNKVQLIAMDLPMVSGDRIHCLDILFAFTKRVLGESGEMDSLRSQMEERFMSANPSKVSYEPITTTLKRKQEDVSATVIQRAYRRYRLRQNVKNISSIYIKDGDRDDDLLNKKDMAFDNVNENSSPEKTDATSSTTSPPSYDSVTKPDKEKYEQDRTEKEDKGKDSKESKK

[4] = mouse plasma, 37° C., incubation time 0 hr (normalisation point)
in vitro [5] = conditions: mouse, plasma
hNav1.5 [6] = biological target: T2, hNav1.5 (Homo sapiens, UniProt Q14524); assay: cell-based
T2 sequence (Q14524 whole entry, looked up): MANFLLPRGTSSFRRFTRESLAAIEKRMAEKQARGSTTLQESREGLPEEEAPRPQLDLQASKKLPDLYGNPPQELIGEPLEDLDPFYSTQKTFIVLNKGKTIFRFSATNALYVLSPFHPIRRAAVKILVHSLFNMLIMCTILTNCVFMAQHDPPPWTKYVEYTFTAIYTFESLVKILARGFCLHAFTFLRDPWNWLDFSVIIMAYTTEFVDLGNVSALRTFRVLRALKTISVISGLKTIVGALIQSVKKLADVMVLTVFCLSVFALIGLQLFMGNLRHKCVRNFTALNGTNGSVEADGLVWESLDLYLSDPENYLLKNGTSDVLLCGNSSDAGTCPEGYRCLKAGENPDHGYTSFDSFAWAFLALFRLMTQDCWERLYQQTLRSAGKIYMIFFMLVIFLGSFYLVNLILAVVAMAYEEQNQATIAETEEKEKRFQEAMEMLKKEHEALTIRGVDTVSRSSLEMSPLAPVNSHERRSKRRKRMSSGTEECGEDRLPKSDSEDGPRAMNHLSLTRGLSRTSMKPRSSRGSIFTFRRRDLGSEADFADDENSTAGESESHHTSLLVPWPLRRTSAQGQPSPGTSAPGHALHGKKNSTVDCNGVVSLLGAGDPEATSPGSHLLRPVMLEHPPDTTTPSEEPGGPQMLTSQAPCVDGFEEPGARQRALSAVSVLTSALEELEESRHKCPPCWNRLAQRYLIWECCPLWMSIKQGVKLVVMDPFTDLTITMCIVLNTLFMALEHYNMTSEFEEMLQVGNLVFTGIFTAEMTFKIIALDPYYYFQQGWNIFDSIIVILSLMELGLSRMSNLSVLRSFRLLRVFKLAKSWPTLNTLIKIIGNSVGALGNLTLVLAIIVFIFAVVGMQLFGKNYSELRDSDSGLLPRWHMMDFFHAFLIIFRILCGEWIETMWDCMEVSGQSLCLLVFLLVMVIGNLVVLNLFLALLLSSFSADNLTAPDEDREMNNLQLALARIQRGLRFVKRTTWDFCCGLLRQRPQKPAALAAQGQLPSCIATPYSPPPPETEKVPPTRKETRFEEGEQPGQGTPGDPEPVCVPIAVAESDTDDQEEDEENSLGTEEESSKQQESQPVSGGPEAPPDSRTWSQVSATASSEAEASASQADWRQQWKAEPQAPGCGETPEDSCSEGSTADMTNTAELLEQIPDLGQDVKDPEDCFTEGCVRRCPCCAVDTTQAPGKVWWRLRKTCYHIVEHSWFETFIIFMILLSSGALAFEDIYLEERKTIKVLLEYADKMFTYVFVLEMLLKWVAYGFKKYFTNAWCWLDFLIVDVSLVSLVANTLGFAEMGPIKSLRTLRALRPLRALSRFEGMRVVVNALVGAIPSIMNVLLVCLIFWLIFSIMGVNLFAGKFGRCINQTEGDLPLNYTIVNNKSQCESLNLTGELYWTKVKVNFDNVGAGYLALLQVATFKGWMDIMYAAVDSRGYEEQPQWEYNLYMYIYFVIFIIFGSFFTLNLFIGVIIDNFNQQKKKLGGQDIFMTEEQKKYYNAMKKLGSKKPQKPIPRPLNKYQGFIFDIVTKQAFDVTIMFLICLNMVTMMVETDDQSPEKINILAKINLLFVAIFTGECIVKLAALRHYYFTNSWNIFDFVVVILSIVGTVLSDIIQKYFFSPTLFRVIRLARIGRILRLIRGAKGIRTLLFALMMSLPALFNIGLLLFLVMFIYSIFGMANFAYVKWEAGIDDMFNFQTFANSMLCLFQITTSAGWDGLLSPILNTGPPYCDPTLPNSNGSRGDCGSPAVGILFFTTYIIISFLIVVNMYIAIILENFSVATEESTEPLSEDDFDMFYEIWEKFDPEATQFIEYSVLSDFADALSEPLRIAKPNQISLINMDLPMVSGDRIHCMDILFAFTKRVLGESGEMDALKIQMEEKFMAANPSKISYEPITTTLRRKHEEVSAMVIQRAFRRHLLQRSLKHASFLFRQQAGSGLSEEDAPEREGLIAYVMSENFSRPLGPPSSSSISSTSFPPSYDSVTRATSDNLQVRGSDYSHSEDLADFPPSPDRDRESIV

[7] = test system: formalin pain model in male CD-1 mice; conditions: for time spent lifting/licking, first phase / time spent lifting/licking, second phase: third study
fast sodium current = assay type: cell-based; conditions: 500 nM; rat DRG neuron, step to 0 mV from −90 mV
hNav1.3 [8] = biological target: T3, hNav1.3 (Homo sapiens, UniProt Q9NY46); assay: cell-based; assay type: cell-based; conditions: Nav1.3 Use IC50
hNav1.2 = hNav1.2 (Homo sapiens, UniProt Q99250); assay: cell-based; conditions: partially inactivated channels; read-out: IC50 against partially inactivated hNav1.2 channels
[9] = test system: isolated perfused rabbit heart
hNav1.7 [10] = biological target: T1, hNav1.7; assay: cell-based; assay type: cell-based
hNav1.5 [11] = biological target: T2, hNav1.5; assay: cell-based; conditions: PatchXpress counterscreen; held at −80 mV, prepulse −120 mV, test step −30 mV; read-out: IC50 against hNav1.5 (counterscreen)
in vitro [12] = conditions: human, plasma
hNav1.3 [13] = biological target: T3, hNav1.3; assay: cell-based; conditions: IonWorks Quattro; clamped to −110 mV, depolarized to −10 mV, 5 min after compound; n=2; read-out: IWQ Use Nav1.3
hNav1.7 [14] = biological target: T1, hNav1.7; assay: cell-based; conditions: Nav1.7 Use IC50
[15] = test system: locomotor activity in male CD-1 mice
hNav1.5 [16] = biological target: T2, hNav1.5; assay: cell-based; conditions: IonWorks Quattro; clamped to −110 mV, depolarized to −10 mV, 5 min after compound; n=2; read-out: IWQ Use Nav1.5
[17] = human plasma, 37° C., incubation time 0 hr (normalisation point)
[18] = test system: TTX-sensitive Nav channels in mouse DRG neurons; assay type: cell-based
in vivo [19] = conditions: male, CD-1, mouse, sc
[20] = test system: voltage-gated potassium currents; assay type: cell-based; conditions: 500 nM; rat DRG neuron, step to 0 mV from −90 mV
hERG = hERG (Homo sapiens, UniProt Q12809); assay: cell-based
hERG, sequence (Q12809 whole entry, the tested form may be a part): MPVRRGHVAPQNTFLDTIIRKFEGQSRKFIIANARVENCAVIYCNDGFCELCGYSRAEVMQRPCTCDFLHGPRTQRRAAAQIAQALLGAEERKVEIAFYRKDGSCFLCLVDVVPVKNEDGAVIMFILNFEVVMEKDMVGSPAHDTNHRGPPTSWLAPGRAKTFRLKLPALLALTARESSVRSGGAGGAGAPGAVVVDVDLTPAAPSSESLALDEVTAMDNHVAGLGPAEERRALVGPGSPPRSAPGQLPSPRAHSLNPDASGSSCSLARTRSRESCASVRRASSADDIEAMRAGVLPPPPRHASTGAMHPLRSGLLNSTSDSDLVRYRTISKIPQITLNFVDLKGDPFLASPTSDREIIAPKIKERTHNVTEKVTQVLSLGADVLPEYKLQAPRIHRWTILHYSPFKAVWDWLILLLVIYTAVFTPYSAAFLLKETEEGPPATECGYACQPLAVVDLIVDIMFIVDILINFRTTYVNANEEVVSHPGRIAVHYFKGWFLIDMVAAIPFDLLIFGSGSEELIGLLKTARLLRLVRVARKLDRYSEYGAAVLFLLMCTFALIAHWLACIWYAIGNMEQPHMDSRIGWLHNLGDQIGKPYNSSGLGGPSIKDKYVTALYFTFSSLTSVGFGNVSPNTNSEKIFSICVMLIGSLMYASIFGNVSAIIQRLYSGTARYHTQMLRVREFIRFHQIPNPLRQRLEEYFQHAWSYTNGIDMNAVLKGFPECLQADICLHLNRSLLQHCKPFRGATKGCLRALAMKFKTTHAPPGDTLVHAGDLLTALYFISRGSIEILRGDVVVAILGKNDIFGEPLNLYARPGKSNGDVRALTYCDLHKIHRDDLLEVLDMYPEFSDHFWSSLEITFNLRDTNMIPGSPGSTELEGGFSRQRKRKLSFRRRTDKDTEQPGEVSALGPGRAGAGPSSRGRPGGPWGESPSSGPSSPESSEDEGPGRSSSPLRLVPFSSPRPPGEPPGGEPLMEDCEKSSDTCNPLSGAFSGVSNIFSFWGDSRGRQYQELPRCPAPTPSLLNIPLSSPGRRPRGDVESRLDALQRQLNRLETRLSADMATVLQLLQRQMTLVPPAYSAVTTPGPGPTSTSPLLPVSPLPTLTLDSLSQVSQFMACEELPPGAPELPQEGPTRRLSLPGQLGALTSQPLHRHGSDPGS

[21] = test system: isolated perfused rabbit heart; remark: listed apart in the source
[22] = first study, 5 mg/kg s.c., 1-hour pre-treatment
[23] = later studies (FIGS. 99-110), 5 mg/kg s.c., 1-hour pre-treatment

SMILES: NC1=N[C@H](O)[C@H]2[C@H]3O[C@]4(O)O[C@@H]([C@@H](O)[C@@]2(N1)[C@@H]4O)[C@]3(O)CO [TTX, tetrodotoxin]
- IC50 (Nav1.4): 5 nM
- IC50 (Nav1.3): 2 to 15 nM
- IC50 (Nav1.7): 4 nM
- IC50 (Nav1.8): > 50000 nM
- IC50 (Nav1.6): 1 nM

SMILES: CC[C@H](C)[C@@H]1NC(=O)[C@@H]2CSSC[C@@H]3NC(=O)[C@H](C(C)C)NC(=O)[C@H](CC(C)C)NC(=O)[C@H](CC(N)=O)NC(=O)[C@@H]4CCCN4C(=O)[C@H](CCCNC(=N)N)NC(=O)[C@H](CSSC[C@H](NC(=O)[C@@H](N)CC(=O)O)C(=O)N[C@@H](CC(C)C)C(=O)NCC(=O)N[C@@H](C)C(=O)N[C@@H](CCSC)C(=O)N[C@@H](CCCNC(=N)N)C(=O)N[C@@H](CCCCN)C(=O)N2)NC(=O)[C@H](CSSC[C@@H](C(=O)N[C@@H](CCCCN)C(=O)N[C@@H](Cc2ccc(O)cc2)C(=O)N[C@H](C(=O)N[C@@H](Cc2ccccc2)C(N)=O)C(C)C)NC(=O)[C@H](Cc2c[nH]c4ccccc24)NC(=O)[C@H](CCCCN)NC(=O)[C@H](Cc2cnc[nH]2)NC(=O)[C@H]([C@@H](C)O)NC(=O)[C@H](CCCNC(=N)N)NC(=O)[C@H](CO)NC3=O)NC(=O)[C@H](CCCCN)NC(=O)[C@H](CC(=O)O)NC(=O)[C@H](CC(N)=O)NC(=O)[C@H](CC(=O)O)NC(=O)[C@@H]2CCCN2C1=O [SEQ ID NO: 22]
- half-life (in vivo [1]; sc, 5 mg/kg): 36 min
- level at time molar (in vivo [1]; sc, 5 mg/kg): ~600 nM
- half-life (in vivo [1]; male, iv, 1 mg/kg): ~15 min
- level at time molar at 2 h (in vivo [2]; 3 mg/kg, first study, 3 mg/kg s.c.): 890 ± 330 nM
- level at time molar at 2 h (in vivo [2]; 5 mg/kg, first study, 5 mg/kg s.c.): 1790 ± 380 nM
- level at time molar at 2 h (in vivo [2]; 5 mg/kg, later studies, 5 mg/kg s.c.): 2100 ± 470 nM
- inhibition of the Nav1.7 current (hNav1.7 [3]): complete inhibition
- IC50 (hNav1.7 [3]; read-out: IC50 against partially inactivated hNav1.7 channels): 13.2 nM
- % peptide remaining [4]: 100%
- remaining at 2 h (in vitro [5]): 106%
- remaining at 4 h (in vitro [5]): 107%
- remaining at 8 h (in vitro [5]): 105%
- remaining at 24 h (in vitro [5]): 99%
- IC50 (hNav1.5 [6]): > 10000 nM
- plasma concentrations with significant reproducible reduction in paw lifting/licking ([7]; first two mouse formalin experiments): 0.60 to 0.80 µM
- time spent lifting and/or licking the affected paw, second phase (5-40 minutes post formalin injection) ([7]; mouse, in vivo): significantly reduced
- time spent lifting/licking, first phase ([7]; peptide 1 mg/kg s.c.): appeared to increase
- time spent lifting/licking, second phase ([7]; peptide 1 mg/kg s.c.): not significantly different
- time spent lifting/licking, first phase ([7]; peptide 3 mg/kg s.c.): appeared to increase
- time spent lifting/licking, second phase ([7]; peptide 3 mg/kg s.c.): appeared to significantly increase
- effect on fast sodium current (fast sodium current): blocked fast sodium current; also recorded: steadily decreased
- IC50 (hNav1.3 [8]): 129 nM and 158 nM
- IC50 (hNav1.2): 265 nM
- HR, normalized value, mean [9]: −0.18%
- JT, normalized value, mean [9]: −4.57%
- JTcF, normalized value, mean [9]: −4.60%
- PR, normalized value, mean [9]: −3.52%
- QRS, normalized value, mean [9]: −1.55%
- QT, normalized value, mean [9]: −4.19%
- QTcF, normalized value, mean [9]: −4.22%
- heart rate ([9]; 1 μM, 20 minutes): no effects
- ventricular depolarization and conduction (QRS and PR intervals) ([9]; 1 μM, 20 minutes): no effects
- ventricular repolarization (QTc or JTc intervals) ([9]; 1 μM, 20 minutes): no delaying effects
- IC50 (hNav1.7 [10]): 640 nM
- IC50 (hNav1.5 [11]): > 30000 nM
- tolerability in mice (1 mg/kg i.v.): tolerated
- exposure in blood (1 mg/kg s.c.): measurable exposure
- sustained peptide concentration in the plasma (5 mg/kg s.c.): about 0.6 μM
- time plasma concentration was sustained (5 mg/kg s.c.): 3 h
- remaining at 2 h (in vitro [12]): 105%
- remaining at 4 h (in vitro [12]): 99%
- remaining at 8 h (in vitro [12]): 101%
- remaining at 24 h (in vitro [12]): 105%
- IC50 (hNav1.3 [13]): 1750 nM
- IC50 (hNav1.7 [14]): 18 nM and 34 nM and 30 nM and 14 nM
- total fine movement [15, 22]: significantly reduced
- total time rearing [15, 22]: significantly reduced
- total basic movement [15, 23]: significantly reduced
- total fine movement [15, 23]: significantly reduced
- total rearing [15, 23]: significantly reduced
- total time rearing [15, 23]: significantly reduced
- peptide plasma concentrations resulting in significant effects on locomotor activity ([15]; mouse, in vivo): > 1.5 µM
- IC50 (hNav1.5 [16]): 10300 nM
- % peptide remaining [17]: 100%
- block of TTX-sensitive Nav current, time course of increasing concentrations [18]: blocked nearly all TTX-sensitive Nav current
- block of TTX-sensitive versus TTX-resistant Nav current [18]: selectively blocked TTX-sensitive Nay current but not TTX-resistant Nav current
- IC50 ([18]; cells held at −140 mV, read-out: IC50 against TTX-sensitive sodium channels in mDRG neurons): 17 nM
- level at time molar at […] (in vivo [19]; 0.5 mg/kg, terminal exposure (peptide plasma concentration at 45 min post formalin injection), second study, 0.5 mg/kg s.c.): 40 nM
- level at time molar at […] (in vivo [19]; 1 mg/kg, terminal exposure (peptide plasma concentration at 45 min post formalin injection), third study, 1 mg/kg s.c.): 200 ± 50 nM
- level at time molar at […] (in vivo [19]; 3 mg/kg, terminal exposure (peptide plasma concentration at 45 min post formalin injection), third study, 3 mg/kg s.c.): 530 ± 230 nM
- level at time molar at […] (in vivo [19]; 5 mg/kg, terminal exposure (peptide plasma concentration at 45 min post formalin injection), second study, 5.0 mg/kg s.c.): 580 ± 260 nM
- level at time molar at […] (in vivo [19]; 5 mg/kg, terminal exposure (peptide plasma concentration at 45 min post formalin injection), third study, 5 mg/kg s.c.): 1840 ± 180 nM
- level at time molar at […] (in vivo [19]; 5 mg/kg, terminal plasma exposure (peptide plasma concentration at 45 min post formalin injection), first study, 5 mg/kg s.c.): 800 ± 210 nM
- effect on voltage-gated potassium currents [20]: did not block voltage-gated potassium currents
- IC50 (hERG): > 10000 nM
- Flow, mean, normalized value [21]: 0.29%
- LVDP, mean, normalized value [21]: −3.16%
- LVDevP, normalized value [21]: −7.22%
- LVSP, mean, normalized value [21]: −8.81%
- dP/dt+, mean, normalized value [21]: −6.55%
- dP/dt−, mean, normalized value [21]: −2.93%
- LV contractility (dP/dt+) ([21]; 1 μM, 20 minutes): no effects
- coronary blood flow (CF) ([21]; 1 μM, 20 minutes): no effects
- coronary vasculature ([21]; 1 μM, 20 minutes): no direct effects
